Results on 2 compounds are retold here after US8808749B2, “Polymer conjugate of bioactive substance having hydroxy group” (priority 2009, dated 2014).

Series [1] has as its system Mouse colon cancer, Colon 26. Briefly: Antitumor activity test for combretastatin A4 conjugate. It is filed as in vivo. The settings on record: for relative tumor volume based on non-treatment group: 200 mg/kg in terms of combretastatin A4, once into tail vein. The source says: Mouse colon cancer, Colon 26, maintained by serial subcutaneous subculture in mice, was minced into about 2-mm cubic fragments, and the fragments were subcutaneously transplanted on the dorsal part of female CDF1 mice with a trocar. Eight days after the tumor transplantation, the polymer conjugate according to the invention (Compound 22) or a control drug (combretastatin A4 phosphate ester; CA4P, PEG-Glu-CA4 or PEG-Asp-CA4) was each administered once into the mouse tail vein in a way such that each mouse received the same dose per body weight in terms of combretastatin A4. Each compound was dissolved in a 5% aqueous glucose solution and used.
After the administration, the major axis (L mm) and the minor axis (W mm) of the tumor were measured using a caliper, and the tumor volume was calculated by the formula (L×W^2)/2.

Series [2] deals with heart muscle. Briefly: Effect of combretastatin A4 conjugate on heart muscle (plasma CPK). Particulars: for creatinine phosphokinase (CPK) in plasma, average: 200 mg/kg once into tail vein. It is filed as in vivo, mouse. The source says:
Combretastatins are known to have a side effect of causing a myocardial damage. As such, by following a change in efficacy of creatinine phosphokinase (CPK) that is released into blood when enzymes abundantly present in heart muscles or neurons are damaged, the degree of side effect of the compounds according to the invention was compared to those of known compounds.
To a non-treated female CDF1 mouse, Compound 22 as a compound of the invention and CA4P, PEG-Glu-CA4, and PEG-Asp-CA4 as a comparative compound were each administered once into the mouse tail vein. Six hours and 24 hours after the administration, three animals per each group were anesthetized with ether and blood was taken from abdominal aorta. Creatinine phosphokinase (CPK) contained in plasma was measured.

For series [3], the system named is Mouse colon cancer, Colon 26. Briefly: Antitumor activity test for docetaxel conjugate. It is filed as in vivo. The settings on record: 100 mg/kg in terms of docetaxel, once into tail vein. The source says: Mouse colon cancer, Colon 26, maintained by serial subcutaneous subculture in mice, was minced into about 2-mm cubic fragments, and the fragments were subcutaneously transplanted on the dorsal part of female CDF1 mice with a trocar. Eight days after the tumor transplantation, the polymer conjugate according to the invention (Compound 30) or a control drug (docetaxel; DTX or PEG-Asp-DTX) was each administered once into the mouse tail vein in a way such that each mouse received the same dose per body weight in terms of docetaxel. Docetaxel was dissolved in anhydrous ethanol and cremophor (manufactured by Sigma Corporation), and diluted with physiological saline at the time of use. Other compounds were dissolved in a 5% aqueous glucose solution for injection and used. After the administration, the major axis (L mm) and the minor axis (W mm) of the tumor were measured using a caliper, and the tumor volume was calculated by the formula (L×W^2)/2.

For `COc1ccc(/C=C\c2cc(OC)c(OC)c(OC)c2)cc1OP(=O)(O)O` [CA4P, combretastatin A4 phosphate ester], the “relative tumor volume based on non-treatment group” value was determined as 1.00 in series [1] (day 0 after administration); 0.72 in series [1] (day 2 after administration); 0.82 in series [1] (day 4 after administration); 0.80 in series [1] (day 6 after administration); 0.80 in series [1] (day 8 after administration). Moreover, the “antitumor activity (in words)” value in series [1] (dose of 200 mg/kg) was “weak antitumor activity”. Besides, the figures for the “creatinine phosphokinase (CPK) in plasma, average” value in series [2] (6 hours after administration) and in series [2] (24 hours after administration) were 400-500 IU/L and “≦200 IU/L”, respectively. Further, the “CPK change (in words)” value in series [2] (dose of 200 mg/kg) is listed as “CPK increase was significant”.
For the compound docetaxel [DTX], the “relative tumor volume based on non-treatment group” value was determined as 1.00 in series [3] (day 0 after administration); 0.50 in series [3] (day 3 after administration); 0.32 in series [3] (day 5 after administration); 0.37 in series [3] (day 9 after administration); 0.35 in series [3] (day 12 after administration).
